Source: article PMC7495481, “Sequence specificity analysis of the SETD2 protein lysine methyltransferase and discovery of a SETD2 super-substrate” (Communications Biology, 2020)
Values joined by “and” are separate entries in the source; they are usually repeats but may differ in a detail not shown here. Identical values can stand only once.

T1: SETD2 (Homo sapiens, UniProt Q9BYW2)
T1 construct: SETD2 catalytic SET domain (amino acids 1347–1711, UniProt No: Q9BYW2); made in house; host or cells: E. coli
T1 sequence (Q9BYW2 1347-1711): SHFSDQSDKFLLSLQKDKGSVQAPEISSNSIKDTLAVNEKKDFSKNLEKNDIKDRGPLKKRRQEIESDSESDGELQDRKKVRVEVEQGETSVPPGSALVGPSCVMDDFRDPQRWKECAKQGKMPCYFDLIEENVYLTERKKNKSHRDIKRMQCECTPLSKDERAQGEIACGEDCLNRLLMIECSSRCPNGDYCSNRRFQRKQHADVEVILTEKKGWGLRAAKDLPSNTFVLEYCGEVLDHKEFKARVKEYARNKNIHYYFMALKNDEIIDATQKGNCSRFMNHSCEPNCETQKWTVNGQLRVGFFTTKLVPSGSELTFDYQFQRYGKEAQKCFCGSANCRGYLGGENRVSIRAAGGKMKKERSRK

T2: His6-tagged catalytic SET domain of SETD2 (amino acids 1347–1711) (human, UniProt Q9BYW2 1347-1711)
T2 construct: also called SET-domain containing protein 2; KMT3A; source: E. coli, purified (Ni-NTA beads)
T2 sequence (looked up): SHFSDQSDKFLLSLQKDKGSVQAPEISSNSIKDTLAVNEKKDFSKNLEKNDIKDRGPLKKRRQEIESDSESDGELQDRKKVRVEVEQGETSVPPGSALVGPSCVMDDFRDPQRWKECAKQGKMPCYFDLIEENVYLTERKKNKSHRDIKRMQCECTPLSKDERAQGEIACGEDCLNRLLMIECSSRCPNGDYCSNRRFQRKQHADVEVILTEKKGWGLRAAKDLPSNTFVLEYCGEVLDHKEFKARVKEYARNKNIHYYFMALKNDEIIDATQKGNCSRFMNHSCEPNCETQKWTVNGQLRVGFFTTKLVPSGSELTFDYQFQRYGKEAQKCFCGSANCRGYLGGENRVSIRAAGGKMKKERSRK


Key:
SETD2 [1] = target: T1, SETD2; test: Peptide SPOT array target lysine methylation of selected non-histone peptides (Fig. 3b); type: biochemical; details: Exp1–Exp3, 3–6 µM SETD2, 0.76 µM AdoMet, 60 min, pH 9
Excerpt: However, we could identify 166 possible targets, which contain partial matches to the substrate specificity profile. The possible methylation of these 166 putative substrates was investigated at the peptide level. For this, fifteen amino acid long peptides containing the sequence of the non-histone targets surrounding the predicted target lysine were synthesized on a membrane. The H3K36 (29–43) peptide (spots A1, I9), the super-substrate peptide (spots A3, I11) and the corresponding lysine to alanine mutation peptides (spot A2, I10, and A4, I12) were included as positive and negative controls (Fig. 3a, Supplementary Fig. 4 and Supplementary Table 2). The methylation reactions and the detection of the methylation signals were performed in duplicates as described above. We observed that all of the investigated peptides were more weakly methylated than the super-substrate peptide. […] In the next step, 20 of the peptides were selected for further investigation based on the methylation intensity and the known functions of the proteins to confirm the methylation at the predicted target site. The peptides were synthesized on another membrane, now including the target lysine to alanine mutation control peptides in each case. The methylation reactions and the detection of the signal were conducted as described above (Fig. 3b, Supplementary Fig. 5 and Supplementary Table 3).
Fig. 3 Identification of non-histone substrates of SETD2. a Candidate non-histone peptide substrates were identified in the human proteome based on the SETD2 super-substrate specificity profile. The peptides were synthesized on a peptide SPOT array (Supplementary Table 2) and methylated by SETD2. As controls, the H3K36, H3K36A, ssK36 and ssK36A peptides were included on spots A1–A4 and I9–I12. The autoradiography image is an example of the obtained results. […] The quantification of the data of two experiments is shown in Supplementary Fig. 4. b Analysis of target lysine methylation of selected non-histone substrate peptides. Peptide SPOT arrays were synthesized containing the non-histone peptide substrates identified in panel A in addition to the lysine to alanine mutations presented on the array as every second spot (Supplementary Table 3). As controls, the H3K36, H3K36A, ssK36, and ssK36A mutant peptides were included on spot A1–A4 and C5–C8. The autoradiography image is an example of the obtained results. The quantification of the data of three experiments is shown in Supplementary Fig. 5. Peptides selected for furhter analysis are highlighted by blue circles. c Protein methylation of FBN1 and confirmation of the target lysine methylation. Both wild type (WT) and mutant (K666R) FBN1 were purified and equal amounts were methylated by SETD2 (2 µM). […] The size of FBN1 is indicated by an asterisk.
(§1) Peptide arrays containing fifteen amino acid long peptides were synthesized using the SPOT synthesis method[48] with an Autospot peptide array synthesizer (Intavis AG, Köln, Germany). After synthesis, the obtained membranes were pre-incubated in methylation buffer (20 mM Tris/HCl pH 9, 0.01% Triton X-100, 10 mM DTT, 1.5 mM MgCl2) for 5 min on a shaker. Thereafter, the membranes were incubated in methylation buffer supplemented with 0.76 µM radioactively labeled AdoMet (PerkinElmer) and 3–6 µM SETD2 enzyme for 60 min on a shaker. After methylation, the membranes were washed 5 times for 5 min in wash buffer (100 mM NH4HCO3, 1% SDS) and incubated in amplify NAMP100V (GE Healthcare) for 5 min. This was followed by the exposure of the membranes to a hyperfilm^TM high performance autoradiography (GE Healthcare) film at −80 °C in the dark. The films were developed with an Optimax Typ TR machine after different exposue times. For quantification the signal intensities were measured with the Phoretix^TM software and analyzed with Microsoft Excel.

SETD2 [2] = target: T1, SETD2; test: Peptide SPOT array methylation of reported SETD2 substrates; type: biochemical; details: SPOT array on cellulose membrane; 0.76 µM radioactive AdoMet, 3–6 µM SETD2, 60 min, pH 9; autoradiography
Experimental: Next, the SETD2 activity was tested on peptide SPOT arrays containing fifteen amino acid long peptides immobilized on a cellulose membrane. As reported SETD2 substrates, the H3K36 (29–43), α -tubulin (33–47) and STAT1 (518–532) peptides (with the target lysine centered in each case) were included, and peptides with the corresponding target lysine mutated to alanine were used as negative controls. The peptide array was incubated in methylation buffer supplemented with SETD2 and radioactively labeled AdoMet. […] Methylation of the previously reported non-histone substrates α -tubulin and STAT1 was not detectable at the peptide level and, therefore, they were excluded from further investigation.
as §1
Supplementary Fig. 1: SETD2 protein and catalytic activity. a Purified His6-tagged SETD2 SET domain (1347-1711) was separated on an SDS-gel and […]
stained with Coomassie BB. […]
tubulin (33-47), STAT1 (518-532) and their corresponding target lysine to alanine mutant peptides were synthesized on a cellulose membrane. The membrane was incubated in methylation buffer supplemented with radioactively labeled AdoMet and SETD2. The signal of the transferred radioactive methyl groups was visualized by autoradiography.

SETD2 [3] = target: T1, SETD2; test: Peptide SPOT array methylation of H3K36 (29–43) variants, super-substrate design (Fig. 2a); type: biochemical; details: SPOT array; 0.76 µM radioactive AdoMet, 3–6 µM SETD2, 60 min, pH 9; autoradiography
Excerpt: Based on these observations, we aimed to explore, if better substrates than H3K36 can be designed for SETD2. We synthesized peptide SPOT arrays including H3K36 (29–43) as a positive control and the H3K36A mutant as a negative control, in which up to 5 combined mutations were systematically introduced that converted the original H3K36 residues into residues that are more favored (Fig. 2a and Supplementary Table 1). This peptide array was methylated by SETD2 as described above and the methylation signal was captured by autoradiography.
Fig. 2 Design of an optimized SETD2 peptide substrate and analysis of its methylation. a Variants of the H3K36 (29–43) peptide containing up to five mutations (Supplementary Table 1) were synthesized on a cellulose membrane and methylated by SETD2. The signal of the transferred radioactive methyl groups was detected by autoradiography. Spots A1 and B15 contain the H3K36 sequence, A2 and B16 the H3K36A peptide. Two films with different exposure times are shown to visualize weaker methylated spots as well. b Comparison of the methylation of purified super-substrate (ssK36) and the H3K36 peptides. […] Methylation reactions were conducted using 20 µM peptide and 6 µM enzyme. The lower panels display autoradiography films after different exposure times allowing to compare the methylation levels of the different samples. For comparison, different dilutions of the methylated ssK36 were loaded as indicated. c Time course of ssK36 peptide methylation determined under single turnover conditions using 5 µM substrate and 6 µM enzyme. […] The gels with the radioactive ssK36 (5 µl loaded per well) and H3K36 peptides (20 µl loaded per well) were exposed together to the same x-ray film. […] An enlargement of the H3K36 data with adjusted y-axis scale is shown in Supplementary Fig. 3d.
as §1

SETD2 [4] = target: T1, SETD2; test: Protein methylation assay (non-histone proteins, GST fusions, nucleosomes, H3.1); type: biochemical; details: based on own results and literature data, ref [18],[19]
Excerpt: The 9 new putative non-histone substrates of SETD2 were cloned into a pGEX-6p2 bacterial expression vector for protein expression. Six of them could be expressed and purified through glutathione sepharose beads (Table 1). For comparison, the super-substrate sequence was cloned with a […] GST-tag (ssK36-GST) to mimic the natural setting of the H3K36 site in the N-terminal tail of histone 3. Similar amounts of the purified non-histone substrate proteins and the ssK36-GST protein were loaded on an SDS-gel and stained with Coomassie BB (Supplementary Fig. 6a). Afterward protein methylation reactions were conducted using radioactively labeled AdoMet and the radioactive signal of the methyl group transfer was detected by autoradiography (Supplementary Fig. 6b). […] Next, we aimed to confirm the FBN1 methylation at the predicated target lysine K666. For this, a K666R mutation was introduced and the wildtype and mutant FBN1 proteins were purified by affinity chromatography. […]
Protein methylation reactions were performed in 40 µl methylation buffer containing 0.76 µM radioactive labeled AdoMet (PerkinElmer), approximately 20 µg of substrate protein and 6 µM SETD2 enzyme (if not otherwise indicated) for 3 h at 25 °C. […] The radioactive methylation signal was detected by a hyperfilm^TM high performance autoradiography film (GE Healthcare) at −80 °C in the dark. […]

[5] = target: T2, His6-tagged catalytic SET domain of …; test: enzyme inhibition kinetics (competitive inhibition of peptide methylation); 20 µM ssK36 (29–43) substrate peptide, 6 µM SETD2, inhibitor peptide 0 to 320 µM, methylation buffer (20 mM Tris/HCl pH 9, 0.01% Triton X-100, 10 mM DTT, 1.5 mM MgCl2) with 0.76 µM radioactively labeled AdoMet, 25 °C, Tricine-SDS-PAGE and autoradiography; global fit to a competitive inhibition steady-state model; details: both partners purified

Relative methylation signal, Average (SETD2 [1]) | Molecule | peptide spot methylation signal (SETD2 [2]) | further results
0.2341 and 0.1607 | APATGGVAKPHRYRP [K36A, H3K36A mutant peptide, negative control, reference compound] | did not show a detectable peptide methylation signal | –
0.4318 and 0.3786 | APATGGVKKPHRYRP [H3K36, H3K36 (29–43) peptide on SPOT array, reference compound] | detectable methylation | –

Further lines, the molecule ahead of its results:

Molecule | Relative methylation signal, Average (SETD2 [1]) | peptide spot methylation signal (SETD2 [2]) | further results
APRFGGVKKPHRYRP [A31R/T32F] | – | – | peptide array methylation of H3K36 variants (in words) (SETD2 [3]): stepwise improvement of activity with increasing number of mutations
APRFGGVKRPHRYRP [A31R/T32F/K37R] | – | – | peptide array methylation of H3K36 variants (in words) (SETD2 [3]): stepwise improvement of activity with increasing number of mutations
DGQMPSDKTIGGGDD [α-tubulin (33–47), reported SETD2 substrate peptide, K40] | – | did not show a detectable peptide methylation signal | –
STCYGGYKRGQCIKP [FBN1, Fibrillin-1 peptide, target lysine 666] | 0.6365 | – | comparison of protein methylation efficiency (SETD2 [4]): more efficiently methylated than H3, α -tubulin and STAT1
APRFGGVMRPNRYRP (histone H3 residues 29–43 (UniProt P68431 printed for the parent H3K36 peptide) with the four super-substrate exchanges and K36M; source: synthetic peptide, bought: Innovative Peptide Solutions (Berlin)) [ssK36M peptide (29–43), super-substrate peptide with the target lysine changed to methionine] | – | – | Ki [5]: 128 µM
KSAPATGGVMKPHRYRP (peptide, UniProt P68431 28-44, looked up, histone H3 residues 27–43 with K36M (the oncohistone mutation); source: synthetic peptide, bought: Intavis AG (Köln)) [H3K36M (27–43) peptide] | – | – | Ki [5]: 447 µM
